≈ marks a conversion by molar mass, not a printed value. Where two headings read alike, the source gives them in different places.
Assays:
[1] = Resazurin cytotoxicity assay, HEK293; assay type: cell-based, Human; details: human, 24 h
Experimental: (§1) Human HEK293 and HepG2 cells were seeded at 3000 and 5000 cells per well in 384-well plates, respectively. Cells were cultured in Dulbecco's modified Eagle's medium with 10% FBS for 24 h at 37 °C, 5% CO2. A dilution series of compounds was added, with the highest concentration of 100 μM. […] After 24 h incubation with the compounds, 5 μM resazurin was added into each well and incubated at 37 °C for 2 h. As a negative control, 1% Triton X-100 was added into the culture media to lyse all of the cells. The fluorescence intensity was read using Polarstar Omega with excitation/emission 560/590 nm. Data were analysed with GraphPad Prism 6 software (La Jolla, California USA) to calculate CC50 values.

[2] = tested on: G. lamblia 713M3 (MtzR); assay: ATP-bioluminescence growth/survival EC50 assay, G. lamblia 713M3; assay type: cell-based, Giardia lamblia
Experimental: (§2) Compounds were screened for antiparasitic activity using an ATP-bioluminescence based assay for cell growth and survival, [24]. […] Viable cell numbers were determined in triplicate using the CellTiter-Glo Luminescent Cell Viability Assay.

[3] = tested on: E. histolytica HM1:IMSS; assay: ATP-bioluminescence growth/survival EC50 assay, E. histolytica; assay type: cell-based, Entamoeba histolytica
Experimental: as §2

[4] = tested on: T. vaginalis F1623; assay: ATP-bioluminescence growth/survival EC50 assay, T. vaginalis; assay type: cell-based, Trichomonas vaginalis
Experimental: as §2

[5] = Resazurin cytotoxicity assay, HepG2; assay type: cell-based, Human; details: human, 24 h
Experimental: as §1

[6] = tested on: C. difficile NAP1/027 (ATCC BAA-1803); assay: Broth microdilution MIC assay, C. difficile NAP1/027; assay type: cell-based, Clostridium difficile; details: strain NAP1/027; for MIC: Clostridioides difficile, ATCCBAA1803
Experimental: Clostridium difficile strains (630, ATCC BAA-1382 and NAP1/027, ATCC BAA-1803) were maintained as previously described. The minimum inhibition concentration (MIC) was determined according to the CLSI Methods with modifications in broth and inoculum for C. difficile, [25], [26]. Briefly, compounds and control antibiotics were serially diluted two-fold in 96-well plates (Non-binding surface, Corning). The plates were placed in a Coy anaerobic chamber (5% H2, 10% CO2, 85% N2) overnight to reduce the medium. C. difficile bacteria from BHIS(TA) agar plates were cultured anaerobically in BHIS at 37 °C overnight. […]. Compound concentration ranged from 64 to 0.03 μg/mL. An antibiotic standard, a positive growth control (no compound) and a sterility control (no bacteria) were included on each 96 well plate. Plates were covered and incubated at 37 °C for 24 h. MICs for each strain were determined as the lowest concentration without visible growth. Variance between replicates was typically within one 2-fold dilution. Median MICs are reported with a range given when the median MIC was between two tested concentrations.

[7] = tested on: C. difficile 630 (ATCC BAA-1382); assay: Broth microdilution MIC assay, C. difficile 630; assay type: cell-based, Clostridium difficile; details: for MIC: Clostridioides difficile, ATCCBAA1382
Experimental: Clostridium difficile strains (630, ATCC BAA-1382 and NAP1/027, ATCC BAA-1803) were maintained as previously described. The minimum inhibition concentration (MIC) was determined according to the CLSI Methods with modifications in broth and inoculum for C. difficile, [25], [26]. Briefly, compounds and control antibiotics were serially diluted two-fold in 96-well plates (Non-binding surface, Corning). […] C. difficile bacteria from BHIS(TA) agar plates were cultured anaerobically in BHIS at 37 °C overnight. […] An antibiotic standard, a positive growth control (no compound) and a sterility control (no bacteria) were included on each 96 well plate. Plates were covered and incubated at 37 °C for 24 h. MICs for each strain were determined as the lowest concentration without visible growth. […] Median MICs are reported with a range given when the median MIC was between two tested concentrations.

[8] = tested on: G. lamblia WB (MtzS); assay: ATP-bioluminescence growth/survival EC50 assay, G. lamblia WB; details: for S.I (CC50/EC50): average cytotoxicity against HEK293 and HepG2 / G. lamblia WB activity
Experimental: as §2

[9] = Plasma protein binding by ultrafiltration; assay type: in vitro ADME; details: human, pooled human plasma (100%), 5 μM, 100% human plasma, 37 °C, 30 min, ultrafiltration; for fraction unbound at 30 min, 5 μM: read-out: Plasma protein binding (% bound); for fraction unbound at 0.5 h, 5 µM: read-out: Plasma protein binding (% bound) (converted)
Experimental: Plasma Protein Binding (PPB) was performed using an Ultrafiltration method, [28]. […] Samples were incubated at […] for 30 min, then centrifuged at 14,000 × g for 8 min, with the clear supernatant transferred to a vial for LC/MS/MS analysis. […] The fraction of unbound compound was calculated by determining the concentration of the filtered sample and the concentration of unfiltered sample. […] LC/MS/MS parameters are detailed in the supplementary information (Supplementary Table 1).

[10] = tested on: HEK293 cells; assay: Resazurin cytotoxicity assay, HEK293; assay type: cell-based, Human; details: for Selectivity index (CC50/EC50): HEK293 CC50 / G. lamblia WB EC50
Experimental: as §1

[11] = tested on: HepG2 cells; assay: Resazurin cytotoxicity assay, HepG2; assay type: cell-based, Human; details: for S.I (CC50/EC50), second value of a split cell: HepG2 CC50 / G. lamblia WB EC50
Experimental: as §1

[12] = HEK293 cells, highest concentration 100 μM, n = 3, read-out: CC50 HEK 293
[13] = Giardia duodenalis, read-out: EC50 G. lamblia 713M3, MtzR strain 713M3, minimum n = 3
[14] = Giardia duodenalis, read-out: pEC50 ± SE G. lamblia 713M3, MtzR strain 713M3 (converted)
[15] = Entamoeba histolytica, read-out: EC50 E. histolytica HM1:IMSS
[16] = Entamoeba histolytica, read-out: pEC50 ± SE E. histolytica HM1:IMSS (converted)
[17] = Trichomonas vaginalis, read-out: EC50 T. vaginalis F1623, MtzS, minimum n = 3
[18] = Trichomonas vaginalis, read-out: pEC50 ± SE T. vaginalis F1623, MtzS (converted)
[19] = HepG2 cells, highest concentration 100 μM, n = 3, read-out: CC50 Hep G2
[20] = strain 630, MtzS, median of n = 4, read-out: MIC C. difficile 630
[21] = Giardia duodenalis, read-out: EC50 G. lamblia WB, MtzS strain WB, minimum n = 3
[22] = Giardia duodenalis, read-out: pEC50 ± SE G. lamblia WB, MtzS strain WB (converted)
[23] = MtzR strain 713M3, minimum n = 3, read-out: EC50 G. lamblia 713M3
[24] = MtzS, minimum n = 3, read-out: EC50 E. histolytica HM1:IMSS
[25] = MtzS, minimum n = 3, read-out: EC50 T. vaginalis F1623
[26] = strain 630, MtzS, median of n = 4
[27] = read-out: EC50 G. lamblia WB, MtzS strain WB, minimum n = 3

Molecule	CC50 at 24 h [1, 12] [µM]	EC50 [2, 13] [µM]	EC50 [2, 14] [µM]	EC50 [3, 15] [µM]	EC50 [3, 16] [µM]	EC50 [4, 17] [µM]	EC50 [4, 18] [µM]	CC50 at 24 h [5, 19] [µM]	MIC [6] [µg/mL]	MIC [7, 20] [µg/mL]	EC50 [8, 21] [µM]	EC50 [8, 22] [µM]	S.I (CC50/EC50) [8]	CC50 [10] [µM]	pEC50 ± SE E. histolytica HM1:IMSS ([3]; MtzS)	EC50 [3, 24] [µM]	CC50 [11] [µM]	MIC C. difficile 630 [7, 26] [µg/mL]	pEC50 ± SE G. lamblia WB ([8]; MtzS strain WB)	EC50 [8, 27] [µM]	also measured
Cn1c([N+](=O)[O-])cnc1C(=O)NC1CCCCC1 [Compound 8k, N-cyclohexyl-1-methyl-5-nitro-1H-imidazole-2-carboxamide]	> 100	5.1	5.01	3.7	3.72	11	10.7	> 100	> 64	> 64	4.9	4.9	>20								fraction unbound at 30 min, 5 μM [9]: ≤ 0.06; fraction unbound at 0.5 h, 5 µM [9]: 0.06
O=C(NC1CCCCC1)c1ncc([N+](=O)[O-])[nH]1 [Compound 12k, N-cyclohexyl-5-nitro-1H-imidazole-2-carboxamide]	> 100	5.5	5.5	2.8	2.82	2.4	2.45	> 100	8 (≈ 33.6 µM)	8 (≈ 33.6 µM)		0.603	>167								MIC ([7]; 630 and NAP1/027 strains together or strain not given, read-out: MIC C. difficile): 4 to 16 µg/mL (≈ 16.8 to 67.2 µM); fraction unbound at 30 min, 5 μM [9]: ≤ 0.06; fraction unbound at 0.5 h, 5 µM [9]: 0.01
Cn1c([N+](=O)[O-])cnc1C(=O)NCc1ccc(OC(F)(F)F)cc1 [Compound 8b, 1-methyl-5-nitro-N-(4-(trifluoromethoxy)benzyl)-1H-imidazole-2-carboxamide]													>33	> 100	4.85 ± 0.02	14	> 100	32 (≈ 93 µM)	5.52 ± 0.03	3	pEC50 ± SE G. lamblia 713M3 ([2]; MtzR strain 713M3): 5.06 ± 0.29; EC50 [2, 23]: 8.8 µM; pEC50 ± SE T. vaginalis F1623 ([4]; MtzS): 4.88 ± 0.01; EC50 [4, 25]: 13 µM
O=C(NO)c1nc([N+](=O)[O-])cn1Cc1ccc(OC(F)(F)F)cc1 [Compound 14d, N-hydroxy-4-nitro-1-(4-(trifluoromethoxy)benzyl)-1H-imidazole-2-carboxamide]	36			10	10				16 (≈ 46.2 µM)	16 (≈ 46.2 µM)	5.1	5.13									Selectivity index (CC50/EC50) [10]: 7; CC50 at 24 h ([1]; HEK293 cells, read-out: pCC50 ± SE HEK293 (converted)): 36.3 µM; S.I (CC50/EC50), second value of a split cell [11]: > 20; CC50 at 24 h ([5]; highest concentration 100 μM, n = 3, read-out: CC50 Hep G2): > 100 µM
O=C(NCc1ccc(OC(F)(F)F)cc1)c1ncc([N+](=O)[O-])[nH]1 [Compound 12b, 5-nitro-N-(4-(trifluoromethoxy)benzyl)-1H-imidazole-2-carboxamide]		2.5	2.51	4.5	4.47	2.2	2.24	93	8 to 16 (≈ 24.2 to 48.5 µM)	16 (≈ 48.5 µM)	0.2	0.245									Selectivity index (CC50/EC50) [10]: > 500; CC50 at 24 h ([1]; highest concentration 100 μM, n = 3, read-out: CC50 HEK 293): > 100 µM; S.I (CC50/EC50), second value of a split cell [11]: 465; CC50 at 24 h ([5]; HepG2 cells, read-out: pCC50 ± SE Hep G2 (converted)): 93.3 µM
Cn1c([N+](=O)[O-])cnc1C(=O)NCc1cccc(OC(F)(F)F)c1 [Compound 8c, 1-methyl-5-nitro-N-(3-(trifluoromethoxy)benzyl)-1H-imidazole-2-carboxamide]													>32	> 100	4.77 ± 0.02	17	> 100	32 to 64	5.51 ± 0.02	3.1	pEC50 ± SE G. lamblia 713M3 ([2]; MtzR strain 713M3): 5.84 ± 0.69; EC50 [2, 23]: 1.5 µM; pEC50 ± SE T. vaginalis F1623 ([4]; MtzS): 5.09 ± 0.09; EC50 [4, 25]: 8.1 µM; MIC C. difficile NAP1/027 [6]: 64 µg/mL (≈ 186 µM)
1-(cyclohexylmethyl)-4-nitro-1H-imidazole-2-carboxamide [Compound 13g]													>20	> 100	< 4.3	> 50	> 100	>64	5.30 ± 0.06	5	MIC C. difficile NAP1/027 [6]: >64 µg/mL
1-(cyclopropylmethyl)-4-nitro-1H-imidazole-2-carboxamide [Compound 13f]														> 100	< 4.3	> 50	> 100	>64	< 4.3	> 50	MIC C. difficile NAP1/027 [6]: >64 µg/mL

— publication PMC4920673, “Nitroimidazole carboxamides as antiparasitic agents targeting Giardia lamblia, Entamoeba histolytica and Trichomonas vaginalis” (European Journal of Medicinal Chemistry, 2016)
